Measurements reported in patent publication US20100311700A1, “Transdermal preparation for external use containing nonsterioidal antiinflammatory/analgesic agent” (Hisamitsu Pharmaceutical Co., Inc., priority 2005, published 2010).

Key:
Type in all cases: in vivo
[1] = system: Balb/c mice; experiment: Murine auricular lymph node test 2 (modified LLNA, lymph node weight after ketoprofen + UVA); conditions: test substance 2% with KP 2%; UVA 20 J/cm^2, three days; lymph node removed after 5 days; toward the KP group
Method: Detection of a skin symptom due to an immunological mechanism resulting from KP upon photo-irradiation was carried out by other modified method of the above LLNA. Namely, as a test animal, Balb/c mice (female, 8-12 weeks old) were used. A test substance of 2% concentration and KP of 2% concentration which were dissolved in acetone—olive oil (4:1, v/v) or acetone—olive oil—physiological saline (3:3:1, v/v) were applied on the back of the pinna, and followed by UVA irradiation at 20 J/cm^2. This treatment inducing sensitization was carried out for three days consecutively. After 5 days from the start of the sensitization, the murine auricular lymph node was removed, and pooled in PBS. Then, PBS attached to the removed lymph node was sufficiently wiped up, and weighed. […]

[2] = system: Balb/c mice; experiment: Murine auricular photo-irradiation test (ear edema after 2% ketoprofen + UVA); conditions: UVA 40 J/cm^2, toward the KP group
Method: The following experiments were carried out by referring to the method of Gerberick et al. (Food Chem. Toxicol., 27, 813-819 (1989) and modifying a part of it. Namely, as a test animal, Balb/c mice (female, 9-11 weeks old) were used. Each test substance {4-tert-butyl-4′-methoxydibenzoylmethane (BM-DBM), 2-ethylhexyl dimethoxybenzylidenedioxoimidazolidinepropionate (DB-D1H), terephthalylidene-3,3′-dicamphor-10,10′-disulfonic acid (TCDCS) and n-hexyl 2-(4-dimethylamino-2-hydroxybenzoyl)benzoate (DHB-BH)} which were dissolved in ethanol and 2% ketoprofen (KP) were applied on the auricle, and followed by WA irradiation at 40 J/cm^2.
The ear thickness was measured 24 hours after the WA irradiation, and an increase from the ear thickness prior to the start of the test was calculated.

[3] = system: Hartley strain guinea pig; experiment: Photo-sensitization test using guinea pigs (modified Adjuvant and Strip method); conditions: 2% test substance with 2% KP in ethanol, UVA 10 J/cm^2, toward the KP group
Method: An effect exerted by the UV blocker to skin symptoms due to an immunological mechanism resulting from KP upon photo-irradiation was further examined by a modified method of the Adjuvant and Strip method of Sato et al. (Nishinihon Hifuka, 42, 831-837 (1980)) using guinea pigs. That is, the cervical back of a white female Hartley strain guinea pig (eight guinea pigs per group) was depilated, and the adjuvant was administered to four corners of 2×2 cm, and then, 2% ketoprofen (KP) solution, or 2% KP and 2% test substance {4-tert-butyl-4′-methoxydibenzoylmethane (BM-DBM)} solution, which were dissolved in ethanol, were applied on the above parts of 2×2 cm under an open condition, and after 1 hour, UVA (10 J/cm^2) was irradiated. This treatment of sensitization induction was carried out successively for 5 days. […] Skin reactions after 24 hours and 48 hours from the irradiation were evaluated according to the above standard of Sato et al. The suppression effect by BM-DBM to the skin symptoms due to the immunological mechanism resulting from KP upon photo-irradiation was evaluated by the erythema/edema suppression ratio (%) toward the KP group.

[4] = system: Balb/c mice; experiment: Murine local lymph node test 1 (modified LLNA, 3H-TdR uptake after ketoprofen + UVA); conditions: UVA 20 J/cm^2, 3 days, toward the KP group
Method: Detection of a skin symptom due to an immunological mechanism resulting from KP upon photo-irradiation was carried out by a modified method of Murine Local Lymph Node Assay (LLNA) proposed by The Interagency Coordinating Committee on the Validation of Alternative Methods (ICCVAM). Namely, as a test animal, Balb/c mice (female, 8-12 weeks old) were used. The test substance {4-tert-butyl-4′-methoxydibenzoylmethane (BM-DBM)} and 2% ketoprofen (KP) which were dissolved in acetone—olive oil (4:1, v/v) were applied on the back of the pinna, and followed by UVA irradiation at 20 J/cm^2. This treatment inducing sensitization was carried out for 3 days consecutively. After 5 days from the start of sensitization, a ^3H-methylthymidine (3H-TdR)/PBS solution of 20μCi per mouse was injected in the tail vein, and after 5 hours, the auricular lymph node was removed. The removed lymph node was made into a single lymph cell suspension by a cell strainer, then washed two times with PBS, and let it stand in 5% trichloroacetic acid (TCA) solution at 4° C. overnight to precipitate DNA. The precipitate was suspended in 1 ml of 5% TCA solution and a radiation activity was measured by a liquid scintillation counter.

[5] = test substance conc. 0.5% in ethanol with 2% ketoprofen on the auricle, ear thickness 24 hours after irradiation

O=C(c1ccc(O)cc1O)c1ccc(O)cc1O [2,2′,4,4′-Tetrahydroxybenzophenone, reference compound]
Suppression ratio (%) in the weight increase of the auricular lymph node [1]: −32%

Nc1ccc(C(=O)O)cc1 [4-Aminobenzoic acid, reference compound]
Suppression ratio (%) in the weight increase of the auricular lymph node [1]: −39%

CCCCC(CC)COC(=O)C=Cc1ccc(OC)cc1 (centres unmarked) [2-Ethylhexyl 4-methoxycinnamate]
Suppression ratio (%) in the weight increase of the auricular lymph node [1]: 20%

O=C(Oc1ccccc1)c1ccccc1O [Phenyl salicylate, reference compound]
Suppression ratio (%) in the weight increase of the auricular lymph node [1]: 0%

2-ethylhexyl dimethoxybenzylidenedioxoimidazolidinepropionate [DB-DIH]
Ear edema suppression ratio (%) [2, 5]: 34%

CCOC(=O)c1ccc(N)cc1 [Ethyl 4-aminobenzoate]
Suppression ratio (%) in the weight increase of the auricular lymph node [1]: 43%

O=C(OCCO)c1ccccc1O [Ethylene glycol monosalicylate, reference compound]
Suppression ratio (%) in the weight increase of the auricular lymph node [1]: −68%

CCCCCCOC(=O)c1ccccc1C(=O)c1ccc(N(C)C)cc1O [DHB-BH, n-hexyl 2-(4-dimethylamino-2-hydroxybenzoyl)benzoate]
Ear edema suppression ratio (%) [2, 5]: 84%

COc1ccc(C(=O)c2ccccc2)c(O)c1 [Oxybenzone]
Suppression ratio (%) in the weight increase of the auricular lymph node [1]: 56%

CC1(C)C2CCC1(CS(=O)(=O)O)C(=O)/C2=C\c1ccc(/C=C2/C(=O)C3(CS(=O)(=O)O)CCC2C3(C)C)cc1 [TP-DCS, terephthalylidene-3,3′-dicamphor-10,10′-disulfonic acid]
Suppression ratio (%) in the weight increase of the auricular lymph node [1]: 63% | Ear edema suppression ratio (%) [2, 5]: 65%

COc1ccc(C(=O)CC(=O)c2ccc(C(C)(C)C)cc2)cc1 [BM-DBM, 4-tert-butyl-4′-methoxydibenzoylmethane]
Suppression ratio (%) in the weight increase of the auricular lymph node [1]: 88% | Ear edema suppression ratio (%) ([2]; test substance conc. 0.1% with 2% ketoprofen, 24 hours after irradiation): 41% | Ear edema suppression ratio (%) ([2]; test substance conc. 0.3% with 2% ketoprofen, 24 hours after irradiation): 81% | Ear edema suppression ratio (%) [2, 5]: 98% | Erythema/Edema suppression ratio (%) After 24 hrs ([3]; skin reaction 24 hours after photo-induction irradiation): 69% | Erythema/Edema suppression ratio (%) After 48 hrs ([3]; skin reaction 48 hours after photo-induction irradiation): 74% | ^3H-TdR uptake suppression ratio(%) ([4]; BM-DBM concentration 0.06% with 2% ketoprofen in acetone-olive oil (4:1), auricular lymph node): 30% | ^3H-TdR uptake suppression ratio(%) ([4]; BM-DBM concentration 0.13% with 2% ketoprofen): 51% | ^3H-TdR uptake suppression ratio(%) ([4]; BM-DBM concentration 0.25% with 2% ketoprofen): 24% | ^3H-TdR uptake suppression ratio(%) ([4]; BM-DBM concentration 0.50% with 2% ketoprofen): 94% | ^3H-TdR uptake suppression ratio(%) ([4]; BM-DBM concentration 1.00% with 2% ketoprofen): 99%

COc1ccc(O)c(-n2nc3ccccc3n2)c1 [2-(2′-Hydroxy-5′-methoxyphenyl)-bezotriazole]
Suppression ratio (%) in the weight increase of the auricular lymph node [1]: 4%
